# Measured values as given in PMC3928078, “Ponatinib efficiently kills imatinib-resistant chronic eosinophilic leukemia cells harboring gatekeeper mutant T674I FIP1L1-PDGFRα: roles of Mcl-1 and β-catenin” (Molecular Cancer, 2014).
# Biological target: T1, FIP1L1-PDGFRα (Homo sapiens, UniProt P16234, T674I, form not given)
# T1 construct: gene PDGFRA; with Pre-mRNA 3'-end-processing factor FIP1
# Format: cell-based
# Details: 24 h, 1000 nM, positive control; gatekeeper mutant; stated gain (imatinib resistance)
# T1 sequence (P16234 550-1089 T674I limits assumed, form open): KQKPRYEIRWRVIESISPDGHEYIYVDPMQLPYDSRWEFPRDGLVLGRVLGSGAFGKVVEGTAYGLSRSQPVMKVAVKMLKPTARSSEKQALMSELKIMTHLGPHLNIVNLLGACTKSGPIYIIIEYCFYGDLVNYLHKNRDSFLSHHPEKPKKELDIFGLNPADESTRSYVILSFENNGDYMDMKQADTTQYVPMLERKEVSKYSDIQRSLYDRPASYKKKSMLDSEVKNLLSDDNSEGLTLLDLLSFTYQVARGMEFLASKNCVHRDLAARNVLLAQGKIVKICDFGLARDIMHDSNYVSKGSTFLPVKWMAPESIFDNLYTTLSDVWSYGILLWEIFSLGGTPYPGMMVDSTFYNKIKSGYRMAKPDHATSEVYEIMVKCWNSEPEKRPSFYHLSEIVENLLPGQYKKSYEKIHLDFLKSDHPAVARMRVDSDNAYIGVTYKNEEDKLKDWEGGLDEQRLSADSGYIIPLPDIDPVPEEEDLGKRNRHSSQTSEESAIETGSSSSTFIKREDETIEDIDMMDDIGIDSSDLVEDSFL
# T1 sequence (Q6UN15 whole entry partner, form open): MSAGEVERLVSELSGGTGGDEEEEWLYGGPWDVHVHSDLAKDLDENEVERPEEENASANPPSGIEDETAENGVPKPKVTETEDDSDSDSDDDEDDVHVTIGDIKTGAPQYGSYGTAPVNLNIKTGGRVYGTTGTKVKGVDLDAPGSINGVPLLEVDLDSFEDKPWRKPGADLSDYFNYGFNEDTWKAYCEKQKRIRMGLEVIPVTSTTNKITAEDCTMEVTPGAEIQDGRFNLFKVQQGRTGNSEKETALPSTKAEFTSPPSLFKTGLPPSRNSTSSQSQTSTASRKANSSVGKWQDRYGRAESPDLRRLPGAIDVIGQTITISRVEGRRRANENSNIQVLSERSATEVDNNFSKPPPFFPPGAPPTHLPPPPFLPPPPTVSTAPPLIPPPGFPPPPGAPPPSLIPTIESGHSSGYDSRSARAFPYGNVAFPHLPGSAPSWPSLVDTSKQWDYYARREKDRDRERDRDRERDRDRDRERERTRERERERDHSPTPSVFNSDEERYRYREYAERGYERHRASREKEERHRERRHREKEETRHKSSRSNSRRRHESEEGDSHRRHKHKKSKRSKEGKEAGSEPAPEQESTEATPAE
structure (smiles),measurement,value
CNC(=O)c1cc(Oc2ccc(NC(=O)Nc3ccc(Cl)c(C(F)(F)F)c3)cc2)ccn1 [sorafenib],immunoblot of phospho-PDGFRα (Y1018) in BaF3 cells,The phosphorylation of T674I FIP1L1-PDGFRα was altered by sorafenib but not imatinib
